Among the data in patent US11931343B2 (ARCUS BIOSCIENCES, INC., priority 2018, dated 2024) are IC50 values, retold here.

pIC50: −log10 of the molar value. Where only a bound is given, the exact number is not on record here.

The assay concerns the target T1, human CD73 (Homo sapiens, UniProt P21589).
T1 sequence (P21589 27-549): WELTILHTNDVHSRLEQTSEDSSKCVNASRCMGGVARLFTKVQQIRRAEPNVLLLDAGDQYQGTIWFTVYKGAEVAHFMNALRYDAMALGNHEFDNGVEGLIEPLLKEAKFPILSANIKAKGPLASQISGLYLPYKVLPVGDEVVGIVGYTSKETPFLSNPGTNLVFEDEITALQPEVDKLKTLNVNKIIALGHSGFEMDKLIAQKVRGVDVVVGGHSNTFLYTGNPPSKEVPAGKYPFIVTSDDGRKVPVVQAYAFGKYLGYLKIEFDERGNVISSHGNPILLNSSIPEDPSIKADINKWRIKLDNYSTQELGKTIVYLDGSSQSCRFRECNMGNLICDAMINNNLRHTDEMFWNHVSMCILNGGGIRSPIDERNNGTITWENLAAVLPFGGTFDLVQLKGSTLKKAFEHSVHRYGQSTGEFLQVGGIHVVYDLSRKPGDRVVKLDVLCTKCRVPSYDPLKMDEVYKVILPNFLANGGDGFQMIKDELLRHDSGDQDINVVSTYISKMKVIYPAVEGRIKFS
Nature of the assay: Inhibition of Ecto-5′-nucleotidase (CD73) activity in CHO-CD73 cells, phosphate release from AMP. The class given is cell-based. To be noted: CHO-K1 cells stably transfected with human CD73; 25 μM AMP; 50 minutes, 37° C.; read-out: Potency: CD73 IC50.
The pIC50 is the IC50 on a negative log10 scale, so that one unit is a factor of ten. Regarding `N#Cc1ccc(Cn2nccc2-c2cc3c(cc2Cl)nnn3-c2ccc3cn[nH]c3c2)cc1` [Example 151], the negative logarithm of the IC50 (pIC50) was 6.00 to 7.00.
As for `N#Cc1ccc(Cn2nccc2-c2cnc3cnn(-c4ccc5cn[nH]c5c4)c3c2)cc1` [Example 152], the figure is below 6.00; as for `O=c1[nH]c2ccc(-n3ncc4cnc(-c5ccnn5Cc5ccc(Cl)cn5)cc43)cc2[nH]1` [Example 153], below 6.00.
As for `N#Cc1ccc(Cn2nccc2-c2cc3c(cn2)nnn3-c2ccc3[nH]c(=O)[nH]c3c2)cc1` [Example 154], the pIC50 is 6.00 to 7.00.
The result for `N#Cc1ccc(Cn2nccc2-c2cc(F)c3nnn(-c4ccc5c(c4)NC(=O)C5)c3c2)cc1` [Example 156] reads below 6.00; that for `N#Cc1ccc(Cn2nccc2-c2ccc3nnn(-c4ccc5[nH]c(=O)[nH]c5c4)c3c2)cc1` [Example 157], 6.00 to 7.00.
On to `O=c1[nH]c2ccc(-n3nnc4ncc(-c5ccnn5Cc5ccc(Cl)cc5Cl)cc43)cc2[nH]1` [Example 158], for which the pIC50 is 6.00 to 7.00.
The result for `O=c1[nH]c2cc(-n3nnc4c(F)cc(-c5ccnn5Cc5ccc(Cl)cc5Cl)cc43)ccc2o1` [Example 159] reads below 6.00; that for `Nc1cc(-n2nnc3c(F)cc(-c4ccnn4Cc4ccc(Cl)cn4)cc32)ccc1O` [Example 160], below 6.00; that for `O=c1[nH]c2cc(-n3nnc4c(F)cc(-c5ccnn5Cc5ccc(Cl)cn5)cc43)ccc2o1` [Example 161], below 6.00.
As for `Nc1cccc(-n2nnc3c(Cl)cc(-c4ccnn4Cc4ccc(Cl)cc4Cl)cc32)c1` [Example 162], the figure is below 6.00; as for `Clc1ccc(Cn2nccc2-c2cnc3cnn(-c4ccc5cn[nH]c5c4)c3c2)c(Cl)c1` [Example 163], 6.00 to 7.00.
The result for `Clc1ccc(Cn2nccc2-c2cnc3cnn(-c4ccc5cn[nH]c5c4)c3c2)nc1` [Example 164] reads 6.00 to 7.00; that for `O=c1[nH]c2ccc(-n3nnc4cnc(-c5ccnn5Cc5ccc(Cl)cn5)cc43)cc2[nH]1` [Example 165], 6.00 to 7.00; that for `N#Cc1ccc(Cn2nccc2-c2cc(F)c3nnn(-c4ccc5oc(=O)[nH]c5c4)c3c2)cc1` [Example 166], below 6.00.
On to `Cc1nc(-c2ccnn2Cc2ccc(C#N)cc2)cc2c1nnn2-c1ccc2cn[nH]c2c1` [Example 169], for which the negative-log IC50 (pIC50) is 6.00 to 7.00.
As for `O=c1[nH]c2ccc(-n3nnc4c(F)cc(-c5ccnn5Cc5ccc(Cl)cc5Cl)cc43)cc2[nH]1` [Example 170], the figure is 6.00 to 7.00; as for `O=c1[nH]c2ccc(-n3nnc4c(F)cc(-c5ccnn5Cc5ccc(Cl)cn5)cc43)cc2[nH]1` [Example 171], 6.00 to 7.00; as for `Fc1ccc(Cn2nccc2-c2cc(F)c3nnn(-c4ccc5nc[nH]c5c4)c3c2)nc1` [Example 172], below 6.00.
As for `O=c1[nH]c2ccc(-n3nnc4c(F)cc(-c5ccnn5Cc5ccc(F)cn5)cc43)cc2[nH]1` [Example 173], the figure is 6.00 to 7.00.
`O=c1[nH]c2ccc(-n3nnc4c(F)cc(-c5ccnn5Cc5ccc(F)cn5)cc43)cc2[nH]1` [Example 174]: the pIC50 was below 6.00.
The result for `N#Cc1ccc(Cn2nccc2-c2cc(F)c3c(N)nn(-c4ccc5[nH]c(=O)[nH]c5c4)c3c2)cc1` [Example 175] reads below 6.00.
The result for `N#Cc1ccc(Cn2nccc2-c2cc(F)c3nnn(-c4ccc5[nH]c(=O)[nH]c5c4)c3c2)nc1` [Example 176] reads 6.00 to 7.00.
As for `Fc1cc(-c2ccnn2Cc2ccc(-c3ncco3)cc2)cc2c1nnn2-c1ccc2cn[nH]c2c1` [Example 177], the figure is below 6.00.
In the case of `N#Cc1ccc(Cn2nccc2-c2cc3c(cn2)nnn3-c2ccc3[nH]c(=O)[nH]c3c2)nc1` [Example 178], the pIC50 was 6.00 to 7.00.
As for `N#Cc1ccc(Cn2nccc2-c2cnc3cnn(-c4ccc5cn[nH]c5c4)c3c2)nc1` [Example 179], the figure is below 6.00.
As for `N#Cc1ccc(Cn2nccc2-c2cnc3cnn(-c4ccc5[nH]c(=O)[nH]c5c4)c3c2)cc1` [Example 180], the figure is below 6.00; as for `Fc1ccc(Cn2nccc2-c2cnc3cnn(-c4ccc5cn[nH]c5c4)c3c2)nc1` [Example 181], below 6.00.
The result for `CC(O)c1ccc(Cn2nccc2-c2cc(F)c3nnn(-c4ccc5[nH]c(=O)[nH]c5c4)c3c2)cc1` (centres unmarked) [Example 182] reads below 6.00; that for `CC(C)(O)c1ccc(Cn2nccc2-c2cc(F)c3nnn(-c4ccc5[nH]c(=O)[nH]c5c4)c3c2)cc1` [Example 183], below 6.00; that for `O=C(Cn1nccc1-c1cc(Cl)c2nnn(-c3ccc4cn[nH]c4c3)c2c1)N1CCCCC1` [Example 184], below 6.00.
As to `CC(NC(=O)Cn1nccc1-c1cc(Cl)c2nnn(-c3ccc4cn[nH]c4c3)c2c1)c1ccccc1` (centres unmarked) [Example 185], the negative-log IC50 (pIC50) was below 6.00.
As for `O=c1[nH]c2ccc(-n3nnc4c(Cl)cc(-c5ccnn5Cc5ccc(Cl)cc5Cl)cc43)cc2[nH]1` [Example 186], the figure is 6.00 to 7.00; as for `CN(C(=O)Cn1nccc1-c1cc(Cl)c2nnn(-c3ccc4cn[nH]c4c3)c2c1)c1ccccc1` [Example 187], below 6.00.
As for `N#Cc1ccc(Cn2nccc2-c2cc(Cl)c3nnn(-c4ccc5[nH]c(=O)[nH]c5c4)c3c2)cc1` [Example 188], the pIC50 was 6.00 to 7.00.
As for `O=c1[nH]c2ccc(-n3nnc4cnc(-c5ccnn5Cc5ccc(F)cn5)cc43)cc2[nH]1` [Example 189], the figure is 6.00 to 7.00.
The result for `O=c1[nH]c2ccc(-n3ncc4ncc(-c5ccnn5Cc5ccc(Cl)cc5Cl)cc43)cc2[nH]1` [Example 190] reads 6.00 to 7.00; that for `O=c1[nH]c2ccc(-n3nnc4c(F)cc(-c5ccnn5Cc5ccc(Cl)cc5F)cc43)cc2[nH]1` [Example 191], 6.00 to 7.00.
Turning to `O=c1[nH]c2ccc(-n3nnc4c(F)cc(-c5ccnn5Cc5ccc(Cl)c(F)c5)cc43)cc2[nH]1` [Example 192], the pIC50 was 6.00 to 7.00.
With `O=c1[nH]c2ccc(-n3nnc4cnc(-c5ccnn5Cc5ccc(Cl)cc5F)cc43)cc2[nH]1` [Example 193], the pIC50 was 6.00 to 7.00.
As for `O=c1[nH]c2ccc(-n3nnc4cnc(-c5ccnn5Cc5ccc(Cl)c(F)c5)cc43)cc2[nH]1` [Example 194], the figure is 6.00 to 7.00; as for `O=c1[nH]c2ccc(-n3nnc4c(F)cc(-c5ccnn5Cc5ccc6cn[nH]c6c5)cc43)cc2[nH]1` [Example 195], 6.00 to 7.00; as for `O=c1[nH]c2ccc(-n3nnc4cnc(-c5ccnn5-c5cccc(F)c5)cc43)cc2[nH]1` [Example 196], below 6.00.
`N#Cc1cccc(-n2nccc2-c2cc3c(cn2)nnn3-c2ccc3[nH]c(=O)[nH]c3c2)c1` [Example 197]: the pIC50 is below 6.00.
As for `N#Cc1cccc(-n2nccc2-c2cc(F)c3nnn(-c4ccc5[nH]c(=O)[nH]c5c4)c3c2)c1` [Example 198], the figure is below 6.00; as for `O=c1[nH]c2ccc(-n3nnc4c(Cl)cc(-c5ccnn5Cc5ccc(F)cn5)cc43)cc2[nH]1` [Example 200], 6.00 to 7.00.
The result for `O=c1[nH]c2ccc(-n3nnc4c(F)cc(-c5ccnn5Cc5ccccn5)cc43)cc2[nH]1` [Example 201] reads below 6.00; that for `O=c1[nH]c2ccc(-n3nnc4c(F)cc(-c5ccnn5CCOc5ccccc5)cc43)cc2[nH]1` [Example 202], below 6.00; that for `O=c1[nH]c2ccc(-n3nnc4ccc(-c5ccnn5Cc5ccc(F)cn5)cc43)cc2[nH]1` [Example 203], 6.00 to 7.00.
The result for `N#Cc1ccc(Cn2nccc2-c2ccc3nnn(-c4ccc5[nH]c(=O)[nH]c5c4)c3c2)nc1` [Example 204] reads 6.00 to 7.00; that for `O=c1[nH]c2ccc(-n3nnc4c(F)cc(-c5ccnn5CCc5ccc(Cl)cc5)cc43)cc2[nH]1` [Example 205], below 6.00.
Turning to `O=c1[nH]c2ccc(-n3nnc4c(F)cc(-c5ccnn5Cc5cccnn5)cc43)cc2[nH]1` [Example 206], the negative-log IC50 (pIC50) was below 6.00.
The result for `Cc1ccc(Cn2nccc2-c2cc(Cl)c3nnn(-c4ccc5[nH]c(=O)[nH]c5c4)c3c2)cc1F` [Example 207] reads 6.00 to 7.00.
As for `Cc1cc(F)ccc1Cn1nccc1-c1cc(Cl)c2nnn(-c3ccc4[nH]c(=O)[nH]c4c3)c2c1` [Example 208], the figure is 6.00 to 7.00; as for `O=c1[nH]c2ccc(-n3nnc4c(F)cc(-c5ccnn5Cc5ncccn5)cc43)cc2[nH]1` [Example 209], below 6.00.
For `CS(=O)(=O)c1cc(Cl)ccc1Cn1nccc1-c1cc(F)c2nnn(-c3ccc4[nH]c(=O)[nH]c4c3)c2c1` [Example 210], the pIC50 is 6.00 to 7.00.
The result for `N#Cc1ccc(Cn2nccc2-c2cc(F)c3nnn(-c4ccc5[nH]c(=O)[nH]c5c4)c3c2)c(C#N)c1` [Example 211] reads 6.00 to 7.00; that for `O=c1[nH]c2ccc(-n3nnc4c(F)cc(-c5ccnn5Cc5ccncn5)cc43)cc2[nH]1` [Example 212], below 6.00.
Regarding `O=c1[nH]c2ccc(-n3nnc4c(Cl)cc(-c5ccnn5-c5cccc6cccnc56)cc43)cc2[nH]1` [Example 213], the negative-log IC50 (pIC50) was below 6.00.
The result for `N#Cc1ccccc1Cn1nccc1-c1cc(F)c2nnn(-c3ccc4[nH]c(=O)[nH]c4c3)c2c1` [Example 214] reads below 6.00; that for `O=c1[nH]c2ccc(-n3nnc4c(F)cc(-c5ccnn5CCc5cccc(Cl)c5)cc43)cc2[nH]1` [Example 215], below 6.00; that for `Cc1cccc(-n2nccc2-c2cc(F)c3nnn(-c4ccc5[nH]c(=O)[nH]c5c4)c3c2)c1` [Example 216], below 6.00.
